# How the values were obtained:
# [1] = tested on: MeCP2-null mice; assay: NAC and D-NAC therapy in MeCP2-null (RTT) mice: survival, behavior, appearance; type: in vivo; settings: MeCP2-null pups
# Method: Detailed materials and methods used in the experiments below, including protocols for making the dendrimers-Cy5 and dendrimers-drug conjugates, have been described by Kannan S et al Sci. Transl. Med., 4:130ra46 (2012) and in U.S. Pat. No. 8,889,101.
# RTT mice were the Adrian Bird model available from Jackson Laboratory.
# Weight and behavior were also assessed. Cytokines were measured using standard mice primers for the assessment of inflammatory markers (Kannan S et al Sci. Transl. Med., 4:130ra46 (2012)).
# Conjugation of dendrimer conjugates. The conjugation of dendrimers to Cy5 was done using previously reported methods (Kannan et al., Science Trans. Med (April 2012). For drug experiments, dendrimers were conjugated to N-acetyl-cysteine and administered at doses ranging from 2-20 mg/kg at differing time points.
# The mice were injected with D-drug or PBS every 3-4 days, Statistical analysis. The data was analyzed for the reproducibility using Student's t-test to determine the significance between two groups. A p-value equal to or less than 0.05 was considered significant.
# Animals were videotaped prior to treatment every 3-4 days, and mobility, gait, tremors, paw clenching, paw clenching time, paw wringing, and respiration were all scored on a scale of 0-3, where ‘0’ indicates the worst score and ‘3’ is best or normal. […]
# [2] = tested on: LPS-induced brain injury in a neonatal rabbit model of cerebral palsy; assay: LPS-induced brain injury in neonatal rabbit model of cerebral palsy; type: in vivo
# Method: The therapeutic efficacy of GA-PAMAM-S-S-NAC dendrimer conjugate was evaluated after two days of animal treatment with lipopolysaccharide (LPS) to induce white matter injury and hypomyelination in the developing rabbit brain (an animal model of Cerebral Palsy).
# [3] = tested on: microglial cells; assay: GSH depletion, ROS, NO, H2O2 and nitrite in microglial cells; type: cell-based; settings: highest concentration (5 mM)
# [4] = tested on: plasma protein; settings: free drug; cited from earlier work
smiles,measurement,setting,value
"CC(=O)N[C@@H](CS)C(=O)O [NAC, N-acetyl cysteine]",Safety / toxicity from survival,[1]; twice weekly therapy,potential toxicity
same,Survival (Kaplan-Meier) compared to non-treated animals,"[1]; twice weekly, 10 mg/kg (NAC basis) from PND21",worse survival than non-treated Rett mice
same,Dose eliciting identical responses,[2]; free NAC vs conjugate,100 mg/kg
same,Fetal inflammation response and motor deficits compared to saline-treated kits,[2]; rabbit kits,decrease in fetal inflammation response with improvement of motor deficits
same,Reduction of H2O2 levels,[3],30-40%
same,Reduction of nitrite levels,[3],30-40%
same,Plasma protein binding,[4],very high plasma protein binding

# Source: patent US20250205369A1, “DENDRIMER COMPOSITIONS AND USE IN TREATMENT OF NEUROLOGICAL AND CNS DISORDERS” (THE JOHNS HOPKINS UNIVERSITY, priority 2014, published 2025)
